Data taken from ChEMBL document CHEMBL4765385, “Synthesis and biological evaluation of β-lapachone-monastrol hybrids as potential anticancer agents” (Eur J Med Chem, 2020).
Calls of active or inactive are those of the source. No cut-off for these calls is given here.

Columns and labels:
L02 = assay: Cytotoxicity against human L02 cells measured after 48 hrs by MTT assay; assay type: cell-based; conditions: L02, 48 h
NCI-H596 [1] = assay: Antiproliferative activity against human NCI-H596 cells measured after 48 hrs by MTT assay; assay type: functional, cell-based; conditions: NCI-H596, 48 h
A549 [2] = assay: cells; conditions: Homo sapiens, A549, 48 h
[3] = target: NAD(P)H dehydrogenase [quinone] 1 (Homo sapiens, UniProt P15559); assay: Substrate activity at recombinant human C-terminal His-tagged NQO1 (1 to 274 residues) expressed in Escherichia coli assessed as metabolic rate by measuring NADPH oxidation per micromol protein at 10 mmol/L measured at 5 secs interval for 1 min by UV-Visible Spectrophotometric method; assay type: ADME
HepG2 [4] = assay: Antiproliferative activity against human HepG2 cells measured after 48 hrs by MTT assay; conditions: HepG2, 48 h
A549 [5] = assay: Antiproliferative activity against human A549 cells measured after 48 hrs in presence of NQO1 inhibitor dicoumarol by MTT assay; assay type: functional, cell-based; conditions: A549, 48 h
in vitro = conditions: human, L02 cells and A549 cells
HepG2 [6] = assay: Induction of apoptosis in human HepG2 cells assessed as early apoptotic cells at 0.8 uM measured after 24 hrs by Annexin V-FITC/propidium iodide staining based flow cytometry (reference value: 2.65%); assay type: functional
NCI-H596 [7] = assay: Induction of apoptosis in human NCI-H596 cells assessed as viable cells at 1.6 uM measured after 24 hrs by Annexin V-FITC/propidium iodide staining based flow cytometry (reference value: 95.17%); assay type: functional; conditions: read-out: Activity
HepG2 [8] = assay: Cell cycle arrest in human HepG2 cells assessed as accumulation at G0/G1 phase at 2.4 uM measured after 24 hrs by propidium iodide staining based flow cytometry analysis (reference value: 46.76%); assay type: functional
HepG2 [9] = assay: Induction of apoptosis in human HepG2 cells assessed as late apoptotic cells at 0.8 uM measured after 24 hrs by Annexin V-FITC/propidium iodide staining based flow cytometry (reference value: 2.27%); assay type: functional
NCI-H596 [10] = assay: Induction of apoptosis in human NCI-H596 cells assessed as late apoptotic cells at 1.6 uM measured after 24 hrs by Annexin V-FITC/propidium iodide staining based flow cytometry (reference value: 1.91%); assay type: functional
NCI-H596 [11] = assay: Induction of apoptosis in human NCI-H596 cells assessed as early apoptotic cells at 1.6 uM measured after 24 hrs by Annexin V-FITC/propidium iodide staining based flow cytometry (reference value: 2.28%); assay type: functional
HepG2 [12] = assay: Induction of apoptosis in human HepG2 cells assessed as necrotic cells at 3.2 uM measured after 24 hrs by Annexin V-FITC/propidium iodide staining based flow cytometry (reference value: 0.35%); assay type: functional
[13] = Toxicity in human HepG2 cells xenografted BALB/c athymic nude mouse assessed as change in body weight at 20 mg/kg, iv administered at 2 days interval 19 days; assay type: organism-based; conditions: in vivo, 456 h, time 19 day
HepG2 [14] = assay: Induction of apoptosis in human HepG2 cells assessed as viable cells at 3.2 uM measured after 24 hrs by Annexin V-FITC/propidium iodide staining based flow cytometry (reference value: 94.73%); assay type: functional; conditions: read-out: Activity
HepG2 [15] = assay: Induction of reactive oxygen species production in human HepG2 cells at 5 uM measured after 5 hrs by DCFH-DA staining based flow cytometry; assay type: functional, cell-based
HepG2 [16] = assay: Induction of apoptosis in human HepG2 cells assessed as early apoptotic cells at 1.6 uM measured after 24 hrs by Annexin V-FITC/propidium iodide staining based flow cytometry (reference value: 2.65%); assay type: functional
HepG2 [17] = assay: Cell cycle arrest in human HepG2 cells assessed as accumulation at G0/G1 phase at 1.2 uM measured after 24 hrs by propidium iodide staining based flow cytometry analysis (reference value: 46.76%); assay type: functional
NCI-H596 [18] = assay: Induction of reactive oxygen species production in human NCI-H596 cells at 5 uM measured after 5 hrs by DCFH-DA staining based flow cytometry; assay type: functional, cell-based
HepG2 [19] = assay: Induction of apoptosis in human HepG2 cells assessed as late apoptotic cells at 3.2 uM measured after 24 hrs by Annexin V-FITC/propidium iodide staining based flow cytometry (reference value: 2.27%); assay type: functional
HepG2 [20] = assay: Induction of apoptosis in human HepG2 cells assessed as early apoptotic cells at 3.2 uM measured after 24 hrs by Annexin V-FITC/propidium iodide staining based flow cytometry (reference value: 2.65%); assay type: functional
HepG2 [21] = assay: Induction of apoptosis in human HepG2 cells assessed as late apoptotic cells at 1.6 uM measured after 24 hrs by Annexin V-FITC/propidium iodide staining based flow cytometry (reference value: 2.27%); assay type: functional
HepG2 [22] = assay: Induction of apoptosis in human HepG2 cells assessed as necrotic cells at 1.6 uM measured after 24 hrs by Annexin V-FITC/propidium iodide staining based flow cytometry (reference value: 0.35%); assay type: functional
NCI-H596 [23] = assay: Induction of apoptosis in human NCI-H596 cells assessed as necrotic cells at 1.6 uM measured after 24 hrs by Annexin V-FITC/propidium iodide staining based flow cytometry (reference value: 0.64%); assay type: functional
HepG2 [24] = assay: Antitumor activity against human HepG2 cells xenografted in BALB/c athymic nude mouse assessed as tumor growth inhibition at 20 mg/kg, iv administered at 2 days interval 19 days by caliper method relative to control; assay type: functional; conditions: 456 h, time 19 day, read-out: TGI
HepG2 [25] = assay: Induction of apoptosis in human HepG2 cells assessed as viable cells at 1.6 uM measured after 24 hrs by Annexin V-FITC/propidium iodide staining based flow cytometry (reference value: 94.73%); assay type: functional; conditions: read-out: Activity
HepG2 [26] = assay: Cell cycle arrest in human HepG2 cells assessed as accumulation at G0/G1 phase at 0.6 uM measured after 24 hrs by propidium iodide staining based flow cytometry analysis (reference value: 46.76%); assay type: functional
HepG2 [27] = assay: Induction of apoptosis in human HepG2 cells assessed as necrotic cells at 0.8 uM measured after 24 hrs by Annexin V-FITC/propidium iodide staining based flow cytometry (reference value: 0.35%); assay type: functional
HepG2 [28] = assay: Induction of apoptosis in human HepG2 cells assessed as viable cells at 0.8 uM measured after 24 hrs by Annexin V-FITC/propidium iodide staining based flow cytometry (reference value: 94.73%); assay type: functional; conditions: read-out: Activity

Question: Which results are given for `COc1cc2c(cc1OC)C1=C(C(=O)C2=O)C(c2cccc(O)c2)NC(=S)N1` (stereo not given)?
Answer: IC50 (L02): 1710 nM; IC50 (NCI-H596 [1]): 1.76 µM; IC50 (A549 [2]): 1770 nM; Drug metabolism [3]: 614 micromol/min/micromol protein; IC50 (HepG2 [4]): 1530 nM; IC50 (A549 [5]): 1490 nM; selectivity ratio (in vitro): 0.97

Question: Which results are given for `O=C1C(=O)c2ccccc2C2=C1C(c1cccc(O)c1)NC(=S)N2` (stereo not given)?
Answer: IC50 (L02): 2880 nM; IC50 (NCI-H596 [1]): 2.49 µM; IC50 (A549 [2]): 370 nM; Drug metabolism [3]: 1128 micromol/min/micromol protein; IC50 (HepG2 [4]): 2120 nM; IC50 (A549 [5]): 1710 nM; selectivity ratio (in vitro): 7.78

Question: For `O=C1C(=O)c2ccccc2C2=C1C(c1cc(O)cc(Cl)c1)NC(=S)N2` (stereo not given), which IC50 (L02) is on record?
Answer: The IC50 was 4580 nM.

Question: And the IC50 (NCI-H596 [1])?
Answer: The IC50 was 17.1 µM.

Question: And the IC50 (A549 [2])?
Answer: The IC50 was 960 nM.

Question: What about the Drug metabolism [3] of the same compound?
Answer: Its Drug metabolism is 941 micromol/min/micromol protein.

Question: And the IC50 (HepG2 [4])?
Answer: The IC50 was 1690 nM.

Question: What about the IC50 (A549 [5]) of the same compound?
Answer: Its IC50 is 1430 nM.

Question: And the selectivity ratio (in vitro)?
Answer: Its selectivity ratio is 4.77.

Question: What does the source list for `O=C1C(=O)c2ccccc2C2=C1C(c1cc(O)ccc1F)NC(=S)N2` (stereo not given)?
Answer: IC50 (L02): 1560 nM; IC50 (NCI-H596 [1]): 7.69 µM; IC50 (A549 [2]): 980 nM; Drug metabolism [3]: 528 micromol/min/micromol protein; IC50 (HepG2 [4]): 1190 nM; IC50 (A549 [5]): 1510 nM; selectivity ratio (in vitro): 1.59

Question: For `Cc1cc(O)cc(C2NC(=S)NC3=C2C(=O)C(=O)c2ccccc23)c1` (stereo not given), which IC50 (L02) is on record?
Answer: The IC50 was 8410 nM.

Question: And the IC50 (NCI-H596 [1])?
Answer: The IC50 was 10.9 µM.

Question: And the IC50 (A549 [2])?
Answer: Its IC50 is 490 nM.

Question: And the Drug metabolism [3]?
Answer: Its Drug metabolism is 539 micromol/min/micromol protein.

Question: And the IC50 (HepG2 [4])?
Answer: The IC50 was 1340 nM.

Question: What about the IC50 (A549 [5]) of the same compound?
Answer: Its IC50 is 1210 nM.

Question: And the selectivity ratio (in vitro)?
Answer: Its selectivity ratio is 17.2.

Question: Which results are given for `O=C1C(=O)c2cc(F)ccc2C2=C1C(c1cccc(O)c1)NC(=S)N2` (stereo not given)?
Answer: IC50 (L02): 1490 nM; IC50 (NCI-H596 [1]): 1.58 µM; IC50 (A549 [2]): 870 nM; Drug metabolism [3]: 1513 micromol/min/micromol protein; IC50 (HepG2 [4]): 1340 nM; IC50 (A549 [5]): 1590 nM; selectivity ratio (in vitro): 1.71

Question: With `COc1ccc2c(c1)C(=O)C(=O)C1=C2NC(=S)NC1c1cccc(O)c1` (stereo not given) as the compound, how does the IC50 (L02) read?
Answer: The IC50 was 21000 nM.

Question: And the Activity (HepG2 [6])?
Answer: The Activity was 7.21%.

Question: What about the viability at 1.6 µM (NCI-H596 [7]) of the same compound?
Answer: The viability at 1.6 µM was 90.8%.

Question: What about the Activity (HepG2 [8]) of the same compound?
Answer: Its Activity is 53%.

Question: What about the Activity (HepG2 [9]) of the same compound?
Answer: The Activity was 8.52%.

Question: And the Activity (NCI-H596 [10])?
Answer: Its Activity is 4.81%.

Question: What about the Activity (NCI-H596 [11]) of the same compound?
Answer: The Activity was 4.22%.

Question: And the IC50 (NCI-H596 [1])?
Answer: The IC50 was 7.07 µM.

Question: And the Activity (HepG2 [12])?
Answer: Its Activity is 0.95%.

Question: What about the Activity [13] of the same compound?
Answer: The Activity was “Non-Toxic”.

Question: And the viability at 3.2 µM (HepG2 [14])?
Answer: The viability at 3.2 µM was 71.1%.

Question: What about the IC50 (A549 [2]) of the same compound?
Answer: Its IC50 is 720 nM.

Question: And the Drug metabolism [3]?
Answer: The Drug metabolism was 1530 micromol/min/micromol protein.

Question: What about the IC50 (HepG2 [4]) of the same compound?
Answer: The IC50 was 1600 nM.

Question: And the Activity (HepG2 [15])?
Answer: Its Activity is “Active”.

Question: And the Activity (HepG2 [16])?
Answer: Its Activity is 9.89%.

Question: What about the Activity (HepG2 [17]) of the same compound?
Answer: The Activity was 49.6%.

Question: What about the Activity (NCI-H596 [18]) of the same compound?
Answer: Its Activity is “Active”.

Question: And the Activity (HepG2 [19])?
Answer: The Activity was 15.3%.

Question: What about the Activity (HepG2 [20]) of the same compound?
Answer: The Activity was 12.67%.

Question: What about the Activity (HepG2 [21]) of the same compound?
Answer: The Activity was 11.48%.

Question: And the Activity (HepG2 [22])?
Answer: The Activity was 0.53%.

Question: What about the Activity (NCI-H596 [23]) of the same compound?
Answer: The Activity was 0.14%.

Question: What about the inhibition in vivo at 20 mg/kg (HepG2 [24]) of the same compound?
Answer: Its inhibition in vivo at 20 mg/kg is 58.1%.

Question: What about the IC50 (A549 [5]) of the same compound?
Answer: The IC50 was 4550 nM.

Question: And the selectivity ratio (in vitro)?
Answer: Its selectivity ratio is 29.1.

Question: And the viability at 1.6 µM (HepG2 [25])?
Answer: Its viability at 1.6 µM is 78.1%.

Question: And the Activity (HepG2 [26])?
Answer: Its Activity is 48.54%.

Question: And the Activity (HepG2 [27])?
Answer: Its Activity is 0.52%.

Question: What about the viability at 0.8 µM (HepG2 [28]) of the same compound?
Answer: Its viability at 0.8 µM is 83.7%.

Question: Which results are given for `CC1(C)CCC2=C(O1)c1ccccc1C(=O)C2=O` [LAPACHONE]?
Answer: IC50 (L02): 4540 nM; IC50 (NCI-H596 [1]): 5.06 µM; IC50 (A549 [2]): 3320 nM; IC50 (HepG2 [4]): 2830 nM; Activity (HepG2 [15]): Active; Activity (NCI-H596 [18]): Active; inhibition in vivo at 20 mg/kg (HepG2 [24]): 67.4%; IC50 (A549 [5]): 6000 nM; selectivity ratio (in vitro): 1.37

Question: What does the source list for `COc1cccc2c1C(=O)c1c(O)c3c(c(O)c1C2=O)C[C@@](O)(C(=O)CO)C[C@@H]3O[C@H]1C[C@H](N)[C@H](O)[C@H](C)O1` [DOXORUBICIN]?
Answer: IC50 (L02): 2180 nM; IC50 (NCI-H596 [1]): 1.08 µM; IC50 (A549 [2]): 1320 nM; IC50 (A549 [5]): 1200 nM
